US7662789B2, “Peptide substance restoring myocardium function” (“Access Bioscience” CJSC, priority 2004, dated 2010)
Like-named read-outs stand apart in the source and are kept apart here. Marks after values point to notes of the source that are not given here. Where a SMILES comes first, the peptide text is derived from it.

Columns and labels:
[1] = test system: organotypic cardiac culture explants; conditions: 3 days incubation
Description: Cardiac tissue explants (from the left and right ventricles) of pubertal Wistar rats were cultivated in petri dishes with collagen bottom cover. The nutritious medium was composed of 35% Eagle's medium, 35% Hanx solution, 25% calf fetal serum and 5% of chicken embryonic extract with added glucose, insulin, gentamycin and glutamin. Ala-Glu-Asp-Arg (SEQ ID NO:1) tetrapeptide was added into the cultural medium in fixed concentrations, from 0.01 to 20.0 ng per ml of nutritious medium. After 3 days of incubation at the temperature of 37° C. the increase in the area of explants was identified using phase contrast microscope. Biological activity of the preparation was expressed in the change of square index (SI) of the explants cultivated in the medium containing the peptide, as compared to the control.

isolated cardiomyocytes = assay: Cardiomyocyte bioenergetics, polarographic oxygen consumption; assay type: cell-based, rats
Description: Cardiomyocytes were extracted from the cardiac muscle of pubertal rats by Vahouny. Oxygen consumption by isolated cardiomyocytes was registered polarographically at the temperature of 30° C. Part of cardiomyocytes suspension was oxygenated by saturation with carbogen for 1-3 hours at room temperature. The other part of suspension was not oxygenated (conditions of moderate hypoxia). […] The tetrapeptide was introduced into the medium in the concentration of 10 ng/ml.

C[C@H](N)C(=O)N[C@@H](CCC(=O)O)C(=O)N[C@@H](CC(=O)O)C(=O)N[C@@H](CCCNC(=N)N)C(=O)O [Tetrapeptide, L-alanyl-L-glutamyl-L-aspartyl-L-arginine] (H-AEDR-OH)
SI, % with respect to the control ([1]; 0.01 ng/ml): 10%
SI, % with respect to the control ([1]; 0.05 ng/ml): 20* %
SI, % with respect to the control ([1]; 0.1 ng/ml): 22* %
SI, % with respect to the control ([1]; 0.5 ng/ml): 20* %
SI, % with respect to the control ([1]; 1.0 ng/ml): 15* %
SI, % with respect to the control ([1]; 2.0 ng/ml): 20* %
SI, % with respect to the control ([1]; 10.0 ng/ml): 27* %
SI, % with respect to the control ([1]; 20.0 ng/ml): 8%
Coefficient of breath stimulation (breath rate with succinate to initial breath rate) (isolated cardiomyocytes; 10 ng/ml, hypoxia, succinate 1×10^−4 M, without tetrapeptide 7.35±0.26): 1.97±0.26
NAD.H2 oxidation by cardiomyocytes (isolated cardiomyocytes; tetrapeptide in the medium): increases NAD.H2 oxidation by cardiomyocytes
